Test results published in patent US7235577B1 (priority 2000, dated 2007).

What was measured:
[1] = biological target: T1, mKv3.1 (Mus musculus, UniProt P15388); test: Selectivity patch clamp, L929 cells expressing mKv3.1; type: cell-based
T1 construct: expressed in transfected cells; host or cells: L929
Experimental: (§1) L929 cells stably expressing mKv1.1, rKv1.2, mKv1.3, and mKv3.1 and MEL cells stably expressing hKv1.5 have been previously described (Grissmer 1994, Mol. Pharmacol. 45: 1227). hKv1.4 and rKv4.2 were stably expressed in LTK (HK1–7). Channel expression was induced 8–12 h before the electrophysiological experiments by 4 μM dexamethasone (Sigma). HEK-293 cells stably expressing the skeletal muscle sodium channel hSkM1 (SCN4A) were generated in the laboratory of Dr. F. Lehmann-Horn. HEK-293 cells stably expressing hSloα were obtained from Dr. Andrew Tinker (Center for Clinical Pharmacology, University College London). L929, MEL, LTK and HEK cells were maintained in DMEM containing 10% heat-inactivated fetal calf serum (Summit Biotechnology, Fort Collins, Colo.) and 250 μg/ml G418 (Life Technologies, Inc.). Rat basophilic leukemia (RBL) cells were maintained in Eagle's minimum essential medium with 2 mM L-glutamine and 10% fetal calf serum. CHO cell were maintained in F12K media (ATCC). Human leukemic Jurkat E6–1 cells were cultured in RPMI 1640 supplemented with 10% fetal calf serum and 1 mM L-glutamine. T84 cells were maintained in a 1:1 mixture of Ham's F12 medium and DMEM with 2.5 mM L-glutamine and 10% fetal calf serum.
(§2) Recordings from the Jurkat SKCa channel were made in K^+ aspartate Ringer (Na^+ was replaced by K^+) with the same internal pipette solution. […]

[2] = biological target: T2, rKir2.1 (Rattus norvegicus, UniProt Q64273); test: Selectivity patch clamp, RBL inward rectifier; type: cell-based; details: RBL cells; slope conductance at −110 mV
T2 construct: endogenous in cells; host or cells: RBL (rat basophilic leukemia)
Experimental: as §1, §2

[3] = biological target: Jurkat-CRAC; test: Selectivity patch clamp, Jurkat CRAC channels; type: cell-based, human; details: monovalent currents with Na+ as charge carrier
Experimental: as §1, §2

[4] = tested on: COS-7 chloride channel; test: Selectivity patch clamp, native chloride channels in COS-7 cells; type: cell-based, African green monkey; details: native chloride channel of COS-7 cells
Experimental: Electrophysiological experiments were carried out in the whole-cell configuration of the patch-clamp technique using an EPC-9 amplifier (HEKA Elektronik, Lambrecht Germany) interfaced to a computer running acquisition and analysis software (Pulse and Pulsfit; HEKA Elektronik). Pipettes were pulled from soft glass capillaries, coated with Sylgard (Dow-Corning, Midland, Mich.), and fire polished to resistances of 2.0–4.5 MΩ measured in the bath. COS-7 cells were trypsinized and plated on glass coverslips 3 h before measurement. […] To prevent activation of the native chloride channels in COS-7 cells an aspartate Ringer solution was used as an external solution (160 mM Na^+ aspartate, 4.5 mM KCl, 2 mM CaCl2, 1 mM MgCl2, 5 mM HEPES, adjusted to pH 7.4 with NaOH, with an osmolarity of 290–310 mosM). 200 ms voltage ramps from −120 mV to 40 mV every 10 s were used. The holding potential in all experiments was −80 mV. Series resistance compensation was not employed. The reduction of slope conductance at −80 mV was used to determine the Kd-value by fitting the values to the Hill equation with a Hill coefficient of unity.
as §2

[5] = biological target: Kv1.1–1.5, Kv3.1, Kv4.2, Jurkat-SKCa, BKCa, hSKM1-Na, CRAC and lymphocyte chloride channels; test: Selectivity on other cloned and native ion channels; type: cell-based; details: all channels of the panel
Experimental: as §1, §2

[6] = tested on: COS-7 cells; test: In vitro toxicity, propidium iodide uptake, 48 h; type: cell-based, African green monkey
Experimental: (§3) The in vitro toxicity was performed as follows.

[7] = tested on: CHO cells; test: In vitro toxicity, propidium iodide uptake, 48 h; type: cell-based, Chinese hamster
Experimental: as §3

[8] = tested on: C2F3 cells; test: In vitro toxicity, propidium iodide uptake, 48 h; type: cell-based, human
Experimental: as §3

[9] = tested on: Jurkat E6-1 cells; test: In vitro toxicity, propidium iodide uptake, 48 h; type: cell-based, human
Experimental: as §3

[10] = tested on: NGP cells; test: In vitro toxicity, propidium iodide uptake, 48 h; type: cell-based, human
Experimental: as §3

[11] = tested on: NLF cells; test: In vitro toxicity, propidium iodide uptake, 48 h; type: cell-based, human
Experimental: as §3

[12] = tested on: CF-1 BR mice; test: ISO acute systemic toxicity study; details: single i.v. 0.5 mg/kg
Experimental: An ISO acute systemic toxicity study was performed in CF-1 BR mice (17–19 g) according to the guidelines of the United States Pharmacopeia XXII. […] Five control mice were injected with an equal volume of the vehicle. The mice were weighed at the beginning of the study and at its termination.

[13] = Hydrolytic stability by HPLC; details: for stability against hydrolysis: over 72 h
Experimental: A Waters 590 liquid chromatograph with a Waters 746 integrator and a Waters 486 UVN is detector, and a 25 cm Lichrospher RP18 column (5-μM particle size) was used. The mobile phase consisted of K2HPO4 25 mM, KH2PO4 30 mM, methanol at 262:13:725. The chromatographic separation was performed at 20° C. with a flow rate of 1.0 ml/min, the absorbance of the elluent was monitored at 210 nm.
Hydrolysis profiles (10 μM compound with 20% acetonitrile) were carried out in Soerensen phosphate buffer (pH 7.4 and pH 5.0) in a total volume of 10 ml. 100 μl samples were collected 0, 1, 2, 3, 4, 5, 24, 48 and 72 hours after incubation, with shaking, in a waterbath at 37° C. and manually injected into the HPLC over Rheodyne 7125 system. For profiles at pH 1.0 artificial stomach fluid (DAB 9), containing 2 g NaCl, 3,2 g pepsin and 80 ml 1 M HCL in 1.0 L of water was used. After 0, 1 and 2 hours 400 μl of sample were collected and extracted three times with 500 μl of ethyl ether by vortexing. The combined extracts were than evaporated to dryness by passing nitrogen through the solution. The residue was than dissolved in 400 μl of mobile phase of which […] were injected in the HPLC.

[14] = tested on: ten cell lines; test: In vitro toxicity, summary over the ten cell lines; details: at a concentration 100–250 times the Kd for IKCa1 channel block
Experimental: The in vitro toxicity was performed as follows. Jurkat E6-1, MEL, C2F3, NGP, NLF cells and human T-lymphocytes were seeded at 5×10^5 cells/ml, and L929, COS-7, CHO and RBL cells were seeded at 10^5 cells/ml in twelve-well plates. Drug (2 or 5 μM) was added in a final DMSO concentration of 0.1%. After 48 h of incubation at 37° C. with 5% CO2, cells were harvested by sucking them off the plates (suspension cells) or by trypsinization (adherent cell lines). Cells were centrifuged, resuspended in 0.5 ml PBS containing 1 μg/ml propidium iodide (PI), and red fluorescence measured on a FACScan flow cytometer after 20 min, 10^4 cells of every sample being analyzed. The percentage of dead cells was determined by their PI uptake. Two controls for every cell line (one in medium and one with 0.1% DMSO) were also analyzed.

T1 sequence (P15388 whole entry): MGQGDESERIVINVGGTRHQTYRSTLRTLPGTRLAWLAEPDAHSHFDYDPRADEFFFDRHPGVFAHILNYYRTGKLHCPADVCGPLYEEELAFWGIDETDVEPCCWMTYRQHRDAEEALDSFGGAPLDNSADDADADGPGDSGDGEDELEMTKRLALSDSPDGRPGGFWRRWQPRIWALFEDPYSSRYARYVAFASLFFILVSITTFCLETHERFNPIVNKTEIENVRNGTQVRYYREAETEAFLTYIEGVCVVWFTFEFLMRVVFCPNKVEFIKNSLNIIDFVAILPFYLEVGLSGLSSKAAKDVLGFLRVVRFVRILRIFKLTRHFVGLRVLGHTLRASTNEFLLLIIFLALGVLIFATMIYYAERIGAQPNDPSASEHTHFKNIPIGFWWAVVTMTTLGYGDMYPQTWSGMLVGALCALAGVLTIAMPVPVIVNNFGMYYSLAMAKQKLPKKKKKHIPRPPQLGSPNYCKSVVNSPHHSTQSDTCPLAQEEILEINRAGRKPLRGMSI
T2 sequence (Q64273 whole entry): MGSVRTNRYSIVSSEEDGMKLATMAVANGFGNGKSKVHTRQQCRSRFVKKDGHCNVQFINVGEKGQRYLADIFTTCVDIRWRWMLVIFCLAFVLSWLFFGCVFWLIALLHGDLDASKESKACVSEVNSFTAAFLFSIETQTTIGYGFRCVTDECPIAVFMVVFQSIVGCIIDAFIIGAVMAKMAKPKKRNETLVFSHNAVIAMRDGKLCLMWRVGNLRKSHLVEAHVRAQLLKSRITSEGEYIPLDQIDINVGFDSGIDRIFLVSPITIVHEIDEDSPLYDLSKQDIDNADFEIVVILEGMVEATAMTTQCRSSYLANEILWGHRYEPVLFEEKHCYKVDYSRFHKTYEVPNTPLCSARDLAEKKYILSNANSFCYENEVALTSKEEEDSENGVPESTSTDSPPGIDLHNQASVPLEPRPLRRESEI

## Clc1ccccc1C(c1ccccc1)(c1ccccc1)n1cccn1 [Compound T34, 1-[(2-Chlorophenyl)diphenylmethyl]-1H-pyrazole]
[1]
  Kd: 30 ± 5 µM
[2]
  Block of rKir2.1: no effect at 10 μM
[3]
  Block of Jurkat-CRAC (Ca): no effect at 10 μM
[4]
  Block of COS-7 (Cl): no effect at 10 μM
[5]
  Kd: ≥ 5 µM
[6]; 2 μM
  percentage of dead cells (PI uptake): 3.6%
[6]; 5 μM
  percentage of dead cells (PI uptake): 4.5%
[7]; 2 μM
  percentage of dead cells (PI uptake): 5.6%
[7]; 5 μM
  percentage of dead cells (PI uptake): 4.7%
[8]; 2 μM
  percentage of dead cells (PI uptake): 15.8%
[8]; 5 μM
  percentage of dead cells (PI uptake): 12.8%
[9]; 2 μM
  percentage of dead cells (PI uptake): 2.5%
[9]; 5 μM
  percentage of dead cells (PI uptake): 3.2%
[10]; 2 μM
  percentage of dead cells (PI uptake): 10.9%
[10]; 5 μM
  percentage of dead cells (PI uptake): 5.9%
[11]; 2 μM
  percentage of dead cells (PI uptake): 10.8%
[11]; 5 μM
  percentage of dead cells (PI uptake): 10.8%
[12]; 7-day study
  clinical appearance: all animals appeared clinically normal
  mortality: no mortality
[12]; day 1
  body weight on day 1: 17.8 g
[12]; day 7
  body weight on day 7: 27.0 g
[13]; artificial stomach fluid (DAB 9), pH 1
  half-life: ~45 min
[13]; pH 5.0, 37° C.
  stability against hydrolysis: completely stable
[13]; pH 7.4, 37° C.
  stability against hydrolysis: completely stable
[13]; pH 10
  stability against hydrolysis: completely stable
[14]
  cell viability in the ten cell lines examined: did not reduce cell viability
